According to PubChem BioAssay AID2060498 (Molecular Pharmacology Branch, DTP, NCI, 2025):
pIC50: −log10 of the molar value.

Test system: 171881-019-R-J1-PDC tumor spheroids, viability
Assay: Anticancer human tumor 171881-019-R-J1-PDC patient-derived invasive breast carcinoma cell line growth inhibition [GQUAD]
Conditions: spheroids with HUVEC and MSC; for pIC50: curve of first compound; for viability, T/C: stronger effect = lower value
Source text: DNA G-quadruplex Stabilizer Agents in Combinations in Complex Spheroids
A high-throughput screen of multi-cell type tumor spheroids was designed to identify active combinations of DNA G-quadruplex stabilizer agents and targeted small molecules. Complex spheroids include a stromal component modeled by human endothelial cells (HUVEC) and fibroblasts modeled by human mesenchymal stem cells (MSCs). The concentration ranges selected for each drug and investigational agent were based upon clinically achievable concentrations if the clinical Cmax of the agent was known.
Compounds. The drugs and investigational agents: pidnarulex (CX-5461; NSC782164), APTO-253 (NSC789042), BRACO-19 (NSC847499), peposertib (NSC802822), ceralasertib (NSC780249), elimusertib (NSC800525), camonsertib (NSC841442), AZD-1390 (NSC803789), olaparib (NSC753686), talazoparib (NSC767125), ART-558 (NSC835418), sotorasib (NSC818433), MRTX-1133 (NSC836407), SN-38 (NSC673596), topotecan (NSC609699), etoposide (NSC141540), doxorubicin (NSC123127), gemcitabine (NSC613327), 5-fluorouracil (NSC19893), paclitaxel (NSC125973), vemurafenib (NSC761431), panobinostat (NSC761190), R-306465 (JNJ-16241199; NSC773264), adavosertib (NSC754352), TP-3654 (NSC805149), carboplatin (NSC241240), KSQ-4279 (NSC840948), and staurosporine (NSC755774) were obtained from the National Cancer Institute (NCI) Developmental Therapeutics Program Chemical Repository (34). The FDA-approved anticancer drug set is available from the NCI Developmental Therapeutics Program. […] The stock solutions were prepared in dimethyl sulfoxide (DMSO, Sigma-Aldrich, St. Louis, MO, cat. D2650) at 800-fold the tested concentration and stored at -70 degrees C prior to their use. All drugs and investigational agents were tested over a range starting from a high concentration at or near the clinical Cmax and decreasing in half-log increments. If the clinical Cmax for an agent had not been determined, the highest concentration tested was 10 microM.
2.3 Cell Culture. All cells were maintained in an incubator at 37 degrees C and 5% CO2 with 95% humidity. The PDC lines were cultured according to standard operating procedures established by the NCI PDMR. All PDCs were thawed and cultured in Matrigel-coated flasks prepared with a working solution of 1X Ham's F-12 nutrient mix, without supplementation (Invitrogen, cat. 11765054), 100 U/mL penicillin-streptomycin (Invitrogen, cat. 15140122), and 2.5% Matrigel (Corning Inc., cat. 354248) for the first three passages. The 857933-349-R-J2-PDC line was cultured in 6C/Colon 1B media, which includes advanced DMEM/F-12 (Thermo Fisher Scientific, cat. 12634028), 10 mM HEPES (Thermo Fisher Scientific, cat. 15630080), 1X GlutaMAX supplement (Thermo Fisher Scientific, cat. 35050061), 0.1 mg/mL primocin (InvivoGen, cat. ant-pm-2), 10% defined fetal bovine serum, heat inactivated (HyClone Laboratories Inc., cat. SH30070.03HI), 50% L-WRN conditioned media (ATCC, cat. CRL-3276), 1.25 mM N-Acetyl-L-cysteine (Sigma-Aldrich, cat. A9165), 10 mM nicotinamide (Sigma-Aldrich, cat. N0636), 1X B-27 supplement (Thermo Fisher Scientific, cat. 17504044), 1X N-2 supplement (Thermo Fisher Scientific, cat. 17502048), 10 microM Y-27632 dihydrochloride (Tocris Bioscience, cat. 1254), and 50 ng/mL human EGF recombinant protein (Thermo Fisher Scientific, cat. PHG0311). The 485176-168-R4-J1-PDC line was cultured in Panc media, which includes all 6C/Colon 1B media components plus 100 ng/mL human FGF-10 (Thermo Fisher Scientific, cat. 100-26), 500 nM SB-431542 (Selleckchem, cat. S1067), and gastrin (Tocris, cat. 3006).
[…]
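Also: spheroids exposed to compounds for 7 days.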
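For viability, T/C in this document: 100% = DMSO vehicle control viability.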

## Nc1ccn(C2OC(CO)C(O)C2(F)F)c(=O)n1 (configuration not stated) + CN(C)c1ccc(Nc2c3ccc(NC(=O)CCN4CCCC4)cc3nc3cc(NC(=O)CCN4CCCC4)ccc23)cc1
Second compound 0.0316 µM
  pIC50: > 7.50
Second compound 0.1 µM
  pIC50: > 7.50
Second compound 0.316 µM
  pIC50: > 7.50
Second compound 1 µM
  pIC50: > 7.50
Second compound 3.16 µM
  pIC50: > 7.50
Second compound 10 µM
  pIC50: > 7.50
Second compound 0.0316 µM, first compound 0.0316 µM
  viability, T/C: 35.4%
Second compound 0.0316 µM, first compound 0.1 µM
  viability, T/C: 35.6%
Second compound 0.0316 µM, first compound 0.316 µM
  viability, T/C: 44.6%
Second compound 0.0316 µM, first compound 1 µM
  viability, T/C: 51%
Second compound 0.0316 µM, first compound 3.16 µM
  viability, T/C: 45.9%
Second compound 0.0316 µM, first compound 10 µM
  viability, T/C: 47.7%
Second compound 0.1 µM, first compound 0.0316 µM
  viability, T/C: 33.7%
Second compound 0.1 µM, first compound 0.1 µM
  viability, T/C: 38%
Second compound 0.1 µM, first compound 0.316 µM
  viability, T/C: 46.6%
Second compound 0.1 µM, first compound 1 µM
  viability, T/C: 53%
Second compound 0.1 µM, first compound 3.16 µM
  viability, T/C: 45.6%
Second compound 0.1 µM, first compound 10 µM
  viability, T/C: 46%
Second compound 0.316 µM, first compound 0.0316 µM
  viability, T/C: 33%
Second compound 0.316 µM, first compound 0.1 µM
  viability, T/C: 36%
Second compound 0.316 µM, first compound 0.316 µM
  viability, T/C: 39.9%
Second compound 0.316 µM, first compound 1 µM
  viability, T/C: 38.5%
Second compound 0.316 µM, first compound 3.16 µM
  viability, T/C: 47.2%
Second compound 0.316 µM, first compound 10 µM
  viability, T/C: 38.4%
Second compound 1 µM, first compound 0.0316 µM
  viability, T/C: 12.5%
Second compound 1 µM, first compound 0.1 µM
  viability, T/C: 8.63%
Second compound 1 µM, first compound 0.316 µM
  viability, T/C: 13.7%
Second compound 1 µM, first compound 1 µM
  viability, T/C: 11.8%
Second compound 1 µM, first compound 3.16 µM
  viability, T/C: 15%
Second compound 1 µM, first compound 10 µM
  viability, T/C: 16.6%
Second compound 3.16 µM, first compound 0.0316 µM
  viability, T/C: 2.29%
Second compound 3.16 µM, first compound 0.1 µM
  viability, T/C: 1.62%
Second compound 3.16 µM, first compound 0.316 µM
  viability, T/C: 2.47%
Second compound 3.16 µM, first compound 1 µM
  viability, T/C: 1.2%
Second compound 3.16 µM, first compound 3.16 µM
  viability, T/C: 2.41%
Second compound 3.16 µM, first compound 10 µM
  viability, T/C: 2.49%
Second compound 10 µM, first compound 0.0316 µM
  viability, T/C: 0.27%
Second compound 10 µM, first compound 0.1 µM
  viability, T/C: 0.9%
Second compound 10 µM, first compound 0.316 µM
  viability, T/C: 0.82%
Second compound 10 µM, first compound 1 µM
  viability, T/C: 0.47%
Second compound 10 µM, first compound 3.16 µM
  viability, T/C: 1.36%
Second compound 10 µM, first compound 10 µM
  viability, T/C: 0.37%
